This series can be described thus: Four hours of driving-simulator combined fatigue loading after intake of tryptophan; concentration of tryptophan in plasma. Type of series: in vivo, human.

Description: Twelve healthy males who were in their twenties served as subjects. Each of the subjects was right-handed, had at least one year of experience as a licensed driver, and drove an ordinary motor vehicle at least once a week. Further, patients with sinus problems, smokers, users of drugs (such as caffeinated or spiced food products and anti-allergic drugs, which affect a central nervous system) were excluded.
The subject was subjected to driving work loading by using a driving simulator (ACCESS MASTER AM2330 manufactured by Tasknet Inc.).
In order to study an effect of tryptophan on fatigue, each of the subjects in a tryptophan group who received tryptophan before loading was subjected to four hours of simulator driving without a break, and each of the subjects in a placebo group who received a placebo before loading was subjected to four hours of simulator driving without a break. The same subject received 5 mg/kg of tryptophan or a placebo at least one week apart, and participated in the experiment.
Blood sample was taken from the subjects according to the experimental schedule shown in Table 4 so as to measure concentrations of amino acids in their plasma.

Consider `N[C@@H](Cc1c[nH]c2ccccc12)C(=O)O` [tryptophan], for which the concentration at 4 h (male, human, plasma, oral, tryptophan group, 5 mg/kg tryptophan taken before loading, after four hours of simulator driving, healthy males) is 39 µM. The “concentration of tryptophan in plasma before fatigue loading” value (tryptophan group (5 mg/kg tryptophan), blood sampled before intake and before four hours of simulator driving, healthy males) is 43 µM. Besides, under “tryptophan group, 5 mg/kg before loading, four hours of simulator driving, placebo group showed a significant decrease”, the “change in concentration of tryptophan in plasma between before and after fatigue loading” value is “no significant decrease”.

The record behind these values is US20070134156A1, “Fatigue evaluation apparatus, fatigue evaluation method, and application thereof” (SOIKEN INC., priority 2004, published 2007).
